From ChEMBL document CHEMBL1201862, “PubChem BioAssay data set” (2004)
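Compound exposure: 48 hours, 5 concentrations, 96-well plates. Here, GI50 denotes the concentration required for 50% inhibition of growth.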 Active and inactive are the calls of the source. Rule as the data show it: active = GI50 up to about 1.1 µM and inactive = higher.

Experiments:
Experiment in all cases: DTP human tumour cell line panel, 48 h
[1] = system: CCRF-CEM
[2] = system: HCC 2998
[3] = system: HL-60
[4] = system: HT-29
[5] = system: K562
[6] = system: M14
[7] = system: Malme-3M
[8] = system: NCI-H23
[9] = system: NCI-H460
[10] = system: OVCAR-8
[11] = system: SF-295
[12] = system: SK-OV-3
[13] = system: SN12C
[14] = system: SR
[15] = system: TK-10
[16] = system: UACC-257
[17] = system: RXF 393

With CC#COP(=O)(OCC)OCC the GI50 [1] was 75 µM (inactive), the GI50 [2] was > 100 µM (inactive) and the GI50 [3] was 17.7 µM (inactive). The GI50 [4] was > 100 µM (inactive), the GI50 [5] was > 100 µM (inactive) and the GI50 [6] was > 100 µM (inactive). The GI50 [7] was > 100 µM (inactive), the GI50 [8] was > 100 µM (inactive) and the GI50 [9] was > 100 µM (inactive). For the same compound, the GI50 [10] was > 100 µM (inactive), the GI50 [11] was > 100 µM (inactive) and the GI50 [12] was > 100 µM (inactive). For the same compound, the GI50 [13] was > 100 µM (inactive), the GI50 [14] was 64.6 µM (inactive) and the GI50 [15] was > 100 µM (inactive). The GI50 [16] was > 100 µM (inactive).
In the case of O=C(CCC(=O)Nc1ccc(Cl)cc1)CC(=O)c1ccc2ccccc2c1, the GI50 [1] was > 100 µM (inactive), the GI50 [2] was > 100 µM (inactive) and the GI50 [3] was > 100 µM (inactive). For the same compound, the GI50 [4] was > 100 µM (inactive), the GI50 [5] was > 100 µM (inactive) and the GI50 [6] was > 100 µM (inactive). The GI50 [7] was > 100 µM (inactive), the GI50 [8] was > 100 µM (inactive) and the GI50 [9] was > 100 µM (inactive). For the same compound, the GI50 [10] was > 100 µM (inactive), the GI50 [17] was > 100 µM (inactive) and the GI50 [11] was > 100 µM (inactive). The GI50 [12] was > 100 µM (inactive), the GI50 [13] was > 100 µM (inactive) and the GI50 [14] was > 100 µM (inactive). The GI50 [15] was > 100 µM (inactive) and the GI50 [16] was > 100 µM (inactive).
O=C1NC2=C(CCCCC/C2=N\O)C12CCCCCC2 was tested, and the GI50 [1] was > 100 µM (inactive), the GI50 [3] was > 100 µM (inactive) and the GI50 [4] was > 100 µM (inactive). The GI50 [5] was > 100 µM (inactive), the GI50 [6] was > 100 µM (inactive) and the GI50 [7] was > 100 µM (inactive). For the same compound, the GI50 [8] was > 100 µM (inactive), the GI50 [9] was > 100 µM (inactive) and the GI50 [10] was > 100 µM (inactive). The GI50 [17] was > 100 µM (inactive), the GI50 [11] was > 100 µM (inactive) and the GI50 [12] was > 100 µM (inactive). For the same compound, the GI50 [13] was > 100 µM (inactive), the GI50 [14] was > 100 µM (inactive) and the GI50 [15] was > 100 µM (inactive). For the same compound, the GI50 [16] was > 100 µM (inactive).
For COC(=O)C(Cc1nc2ccc(Cl)cc2nc1O)/C(=N\N)C(=O)Nc1cc(C)c(Cl)cc1S(=O)(=O)O (stereo not drawn), the GI50 [1] was 43.1 µM (inactive), the GI50 [2] was > 100 µM (inactive) and the GI50 [4] was > 100 µM (inactive). The GI50 [5] was > 100 µM (inactive), the GI50 [6] was > 100 µM (inactive) and the GI50 [7] was > 100 µM (inactive). The GI50 [8] was > 100 µM (inactive), the GI50 [9] was > 100 µM (inactive) and the GI50 [10] was > 100 µM (inactive). The GI50 [11] was > 100 µM (inactive), the GI50 [12] was > 100 µM (inactive) and the GI50 [13] was > 100 µM (inactive). For the same compound, the GI50 [14] was 99.8 µM (inactive) and the GI50 [16] was > 100 µM (inactive).
For CCCC(=O)C(CC)/C(CCC(=O)N(Cc1ccccc1)Cc1ccccc1)=N/NC(=O)C[N+](C)(C)C (stereo not drawn), the GI50 [1] was > 100 µM (inactive), the GI50 [3] was > 100 µM (inactive) and the GI50 [4] was > 100 µM (inactive). The GI50 [5] was > 100 µM (inactive), the GI50 [6] was > 100 µM (inactive) and the GI50 [7] was > 100 µM (inactive). The GI50 [8] was > 100 µM (inactive), the GI50 [9] was > 100 µM (inactive) and the GI50 [10] was > 100 µM (inactive). The GI50 [17] was > 100 µM (inactive), the GI50 [11] was > 100 µM (inactive) and the GI50 [12] was > 100 µM (inactive). For the same compound, the GI50 [13] was > 100 µM (inactive), the GI50 [14] was > 100 µM (inactive) and the GI50 [16] was > 100 µM (inactive).
For Cc1ccccc1Cn1nc2ccccc2cc1=O, the GI50 [1] was > 100 µM (inactive), the GI50 [2] was > 100 µM (inactive) and the GI50 [4] was > 100 µM (inactive). For the same compound, the GI50 [5] was > 100 µM (inactive), the GI50 [6] was > 100 µM (inactive) and the GI50 [7] was > 100 µM (inactive). The GI50 [8] was > 100 µM (inactive), the GI50 [9] was > 100 µM (inactive) and the GI50 [10] was > 100 µM (inactive). For the same compound, the GI50 [11] was > 100 µM (inactive), the GI50 [12] was > 100 µM (inactive) and the GI50 [13] was > 100 µM (inactive). For the same compound, the GI50 [15] was > 100 µM (inactive) and the GI50 [16] was > 100 µM (inactive).
For C#CCNC(=O)NCCCC(NC(C)=O)C(=O)NCc1ccccc1 (stereo not drawn), the GI50 [1] was > 100 µM (inactive), the GI50 [2] was > 100 µM (inactive) and the GI50 [3] was > 100 µM (inactive). The GI50 [4] was > 100 µM (inactive), the GI50 [5] was > 100 µM (inactive) and the GI50 [6] was > 100 µM (inactive). The GI50 [7] was > 100 µM (inactive), the GI50 [8] was > 100 µM (inactive) and the GI50 [9] was > 100 µM (inactive). For the same compound, the GI50 [10] was > 100 µM (inactive), the GI50 [17] was > 100 µM (inactive) and the GI50 [11] was > 100 µM (inactive). The GI50 [12] was > 100 µM (inactive), the GI50 [13] was > 100 µM (inactive) and the GI50 [14] was > 100 µM (inactive). The GI50 [15] was > 100 µM (inactive) and the GI50 [16] was > 100 µM (inactive).
In the case of C/C(=N\NC(N)=S)c1ccc(C)cc1C, the GI50 [1] was > 100 µM (inactive), the GI50 [2] was > 100 µM (inactive) and the GI50 [3] was 36 µM (inactive). For the same compound, the GI50 [4] was 28.6 µM (inactive), the GI50 [5] was 81.5 µM (inactive) and the GI50 [6] was > 100 µM (inactive). The GI50 [7] was > 100 µM (inactive), the GI50 [8] was > 100 µM (inactive) and the GI50 [9] was 64.7 µM (inactive). For the same compound, the GI50 [10] was > 100 µM (inactive), the GI50 [17] was 8.2 µM (inactive) and the GI50 [11] was > 100 µM (inactive). The GI50 [12] was > 100 µM (inactive), the GI50 [13] was > 100 µM (inactive) and the GI50 [14] was < 0.01 µM (active). The GI50 [15] was > 100 µM (inactive) and the GI50 [16] was 38.4 µM (inactive).
For O=C1C/C(Br)=C\c2ccccc2-c2ccccc21, the GI50 [1] was 1.06 µM (active), the GI50 [2] was 7.14 µM (inactive) and the GI50 [3] was 1.71 µM (inactive). For the same compound, the GI50 [4] was 2.07 µM (inactive), the GI50 [5] was 1.06 µM (active) and the GI50 [6] was 2.07 µM (inactive). The GI50 [7] was 2.16 µM (inactive), the GI50 [8] was 3.16 µM (inactive) and the GI50 [9] was 2.86 µM (inactive). For the same compound, the GI50 [10] was 2.19 µM (inactive), the GI50 [17] was 1.43 µM (inactive) and the GI50 [11] was 4.98 µM (inactive). The GI50 [12] was 3.03 µM (inactive), the GI50 [13] was 2.04 µM (inactive) and the GI50 [14] was 0.405 µM (active). The GI50 [15] was 4.78 µM (inactive) and the GI50 [16] was 4.19 µM (inactive).
